Data on two compounds can be found in patent publication US6372208B1, “Method of reducing an immune response to a recombinant virus” (The Trustees of the University of Pennsylvania, priority 1996, dated 2002).

The test system of assay [1] is E1-deleted adenovirus (H5.010CMVlacZ, H5.010CBALP).
Assay [2] deals with human Ad5 recombinant vector. The assay can be described thus: Neutralizing antibody to adenovirus in BAL (Hela cell lacZ transduction). In kind it is in vivo, C57BL/6 mice. To be noted: day 28, versus control mice. The protocol: BAL samples obtained from animals 28 days after primary exposure to recombinant virus were evaluated for neutralizing antibodies to adenovirus and anti-adenovirus antibody isotypes as follows. The same four groups of C57BL/6 mice, i.e., control, CD4^+ depleted, IL-12 treated and IFN-γ treated, were infected with H5.010BALP. Neutralizing antibody was measured in serially-diluted BAL samples (100 μl) which were mixed with H5.010CBlacZ (1×10^6 pfu in 20 μl), incubated for 1 hour at 37° C., and applied to 80% confluent Hela cells in 96 well plates (2×10^4 cells per well). After 60 minutes of incubation at 37° C., 100 μl of DMEM containing 20% FBS was added to each well. Cells were fixed and stained for β-galactosidase expression the following day.
(§1) The results are shown graphically in FIGS. 1A through 1C, which summarize neutralizing antibody titer, and the relative amounts (OD405) of IgG and IgA present in BAL samples.

Assay [3] concerns recombinant adenoviruses H5.010CBALP and H5.010CMVlacZ. The assay can be described thus: Liver-directed adenovirus gene transfer and readministration (Example 3). It is filed as in vivo, C57BL/6 mice. The conditions noted are these: liver, readministered day 28, read day 31. As for the experimental part:
Experiments substantially identical to those described in Example 2 above were conducted in which viral vectors were administered into the blood for introduction of the transgene into the liver (rather than intratracheal delivery into the lung).
Female C57BL/6 mice (6-8 weeks old) were injected with suspensions of H5.010CBALP (1×10^9 pfu in 50 μl of PBS) i.p. at day 0 and similarly with H5.010CMVlacZ at day 28. One group of such mice was used as a control. Another group of mice was acutely depleted of CD4^+ cells by i.p. injection of antibody to CD4^+ cells (GK1.5; ATCC No. TIB207, 1:10 dilution of ascites) at the time of the initial gene therapy (days −3, 0, and +3). A third group of mice was injected with IL-12 (2 μg, i.p. injections) at the time of the first administration of virus (days 0 and +1). A fourth group of mice was injected with gamma interferon (2 μg, i.p. injections) at the time of the first administration of virus (days 0 and +1) .
When mice were subsequently euthanized and necropsied at days 3, 28, or 31, liver tissues were prepared for cryosections according to the procedures used above for lung tissue in Example 2.
The cryosection results were substantially similar for liver-directed gene therapy according to this method as for the lung-directed therapy of Example 2 above. The results described below were obtained from the alkaline phosphatase histochemical stains (magnification ×100) or β-galactosidase X-gal stains (magnification ×100).

The test system of another assay is H5.010CBlacZ. Put plainly: Adenovirus-specific IgG and IgA in BAL by ELISA. In kind it is in vivo, C57BL/6 mice. To be noted: day 28, versus control mice. The protocol:
Adenovirus-specific antibody isotype was determined in BAL by using an enzyme-linked immunosorbent assay (ELISA). Briefly, 96-well plates were coated with 100 μl of PBS containing 5×10^9 particles of H5.010CBlacZ for 18 hours at 4° C. The wells were washed 5 times with PBS. After blocking with 200 μl of 2% BSA in PBS, the plates were rinsed once with PBS and incubated with 1:10 diluted BAL samples for 90 minutes at 4° C. Thereafter, the wells were extensively washed and refilled with 100 μl of 1:1000 diluted ALP-conjugated anti-mouse IgG or IgA (Sigma). The plates were incubated, subsequently washed 5 times, and 100 μl of the substrate solution (p-nitrophenyl phosphate, PNPP) was added to each well. Substrate conversion was stopped by the addition of 50 μl of 0.1M EDTA, and reactions were read at 405 nm.
as §1
A general note: In an ELISA, binding on a coated surface is turned into a signal by an enzyme label.

Assay [4] concerns recombinant adenoviruses H5.010CBALP and H5.010CMVlacZ. Put plainly: Lung-directed adenovirus gene transfer and readministration, transgene expression by histochemistry (Example 2). In kind it is in vivo, C57BL/6 mice. To be noted: lung, readministered day 28, read day 31. The protocol: Female C57BL/6 mice (6˜8 week old) were infected with suspensions of H5.010CBALP (1×10^9 pfu in 50 μl of PBS) via the trachea at day 0 and similarly with H5.010CMVlacZ at day 28. One group of such mice was used as a control. Another group of mice were acutely depleted of CD4^+ cells by i.p. injection of antibody to CD4^+ cells (GK1.5; ATCC No. TIB207, 1:10 dilution of ascites) at the time of the initial gene therapy (days −3, 0, and +3). A third group of mice was injected with IL-12 (1 μg intratracheal or 2 μg, i.p. injections) at the time of the first administration of virus (days 0 and +1). A fourth group of mice was injected with gamma interferon. (1 μg intratracheal or 2 μg, i.p. injections) at the time of the first administration of virus (days 0 and +1).
When mice were subsequently euthanized and necropsied at days 3, 28, or 31, lung tissues were prepared for cryosections, while bronchial alveolar lavage (BAL) and mediastinal lymph nodes (MLN) were harvested for immunological assays.
The lung tissues were evaluated for ALP expression at day 3 and day 28 by histochemical staining following the procedures of Yang I, cited above. β-galactosidase expression was assayed at day 31 by X-gal histochemical staining. The results described below were obtained from the alkaline phosphatase histochemical stains (magnification ×100) or β-galactosidase X-gal stains (magnification ×100).

Like-named read-outs stand apart in the source and are kept apart here.

In the case of `O=P1(N(CCCl)CCCl)NCCCO1` (stereo not shown) [cyclophosphamide], the transgene expression entry in assay [1] (liver) is listed as “transgene expression was prolonged”. For the same compound, in assay [1] (liver, at higher doses), the “formation of neutralizing antibody” value was “formation of neutralizing antibody was prevented” and the vector readministration entry is on record as “allowing successful vector readministration”. Also, the “CD4 and CD8 T helper cell activation to adenovirus capsid protein” value in assay [1] (liver, short course at the time of virus delivery) was “successfully interrupt both CD4 and CD8 T helper cell activation”. Also, in assay [1] (lung), the “formation of neutralizing antibodies” value was “prevented formation of neutralizing antibodies at all doses” and the transgene expression result is listed as “stabilized transgene expression at high dose”.

On to gamma interferon [IFN-γ], for which the “neutralizing antibody in BAL” value in assay [2] was “decreased as compared to the control animals not treated with cytokine, but not to the extent obtained with those treated with IL-12”. Further, the “gene transfer upon second administration of virus (lacZ)” value in assay [3] and in assay [4] was “efficient gene transfer was accomplished upon a second administration of virus” each time. For the same compound, the “virus specific IgA in BAL” value in the assay on H5.010CBlacZ is recorded as “decreased as compared to the control animals not treated with cytokine, but not to the extent obtained with those treated with IL-12”.
